Patent US10899758B2, “Inhibitors of the menin-MLL interaction” (Vitae Pharmaceuticals, LLC, priority 2016, dated 2021)

Tests used:
[1] = target: T1, menin/MLL binding (biotinylated wild-type or mutated menin and MLL-AF9 fusion protein) (Homo sapiens, UniProt O00255); experiment: Assay 1 (Binding Assay): AlphaLISA menin/MLL binding; details: 5 nM biotinylated menin, MLL-AF9-FLAG lysate
T1 construct: biotinylated (1) wild-type menin or (2) mutated menin (described in Nature (2012) Vol. 482, pp. 542-548); fused on or other part: Biotin attached chemically (Sulfo-NHS-Biotin); no fused second protein is printed for menin
T1 sequence (O00255 1-459 limits assumed): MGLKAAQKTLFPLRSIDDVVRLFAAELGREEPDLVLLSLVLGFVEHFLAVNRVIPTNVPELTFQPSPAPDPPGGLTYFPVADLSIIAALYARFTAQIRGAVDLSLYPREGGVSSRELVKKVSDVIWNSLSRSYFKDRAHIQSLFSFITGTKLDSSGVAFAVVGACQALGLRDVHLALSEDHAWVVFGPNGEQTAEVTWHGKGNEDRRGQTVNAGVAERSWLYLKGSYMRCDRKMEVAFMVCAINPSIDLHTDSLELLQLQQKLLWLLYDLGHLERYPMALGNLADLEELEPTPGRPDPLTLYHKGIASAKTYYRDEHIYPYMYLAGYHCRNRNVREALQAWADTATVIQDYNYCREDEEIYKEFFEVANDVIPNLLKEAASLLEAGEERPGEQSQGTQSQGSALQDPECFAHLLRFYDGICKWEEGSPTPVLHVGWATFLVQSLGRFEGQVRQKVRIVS
Outline: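 Biotinylated E. coli-expressed menin (wild-type or mutant), 5 nM, incubated 30 min RT with compound and HEK293 lysate of MLL1-1,396–AF9-FLAG in pH 7.4 Tris buffer, 5% DMSO, 1 mM DTT. Anti-FLAG acceptor and streptavidin donor beads added, 60 min RT, AlphaLISA signal read. IC50 from four-parameter fit of % inhibition.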

[2] = tested on: human acute monocytic leukemia cell line MV-4-11; experiment: Assay 2 (Cell Proliferation Assay), ATP quantitation (CellTiter-Glo); assay type: cell-based; details: Homo sapiens, MV4-11, 72 h, MV-4-11 cells, read-out: Assay 2 (EC50, inhibition of cell proliferation)
Outline: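 Cells (1.67×10^4/well, 10% FBS medium) incubated ±compound 72 h at 37 °C, 5% CO2; HL-60 served as toxicity control. ATP read by CellTiter-Glo luminescence; % inhibition scaled between DMSO and a potent menin inhibitor at ≥100×LD50.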

IC50 [1] [nM]	EC50 [2] [nM]	SMILES
< 100	< 100	CCN(C(=O)c1cc(F)ccc1-n1cc(C2CCN(C[C@H]3CC[C@H](NS(C)(=O)=O)CC3)C2)c2ccncc21)C(C)C (stereo partly drawn) [Example 125, N-ethyl-5-fluoro-N-isopropyl-2-(3-(1-((trans-4-(methylsulfonamido)cyclohexyl)methyl)pyrrolidin-3-yl)-1H-pyrrolo[2,3-c]pyridin-1-yl)benzamide]
< 100	< 100	CC(C)N(C(=O)c1cc(F)ccc1-n1cc(C2CCN(Cc3ccc4c(c3)[nH]c(=O)n4CCO)C2)c2ccncc21)C(C)C (centres unmarked) [Example 126, 5-fluoro-2-(3-(1-((1-(2-hydroxyethyl)-2-oxo-2,3-dihydro-1H-benzo[d]imidazol-5-yl)methyl)pyrrolidin-3-yl)-1H-pyrrolo[2,3-c]pyridin-1-yl)-N,N-diisopropylbenzamide]
< 100	< 100	CC(C)N(C(=O)c1cc(F)ccc1-n1cc(C2CCN(C[C@H]3CC[C@H](NS(C)(=O)=O)CC3)C2)c2ccncc21)C(C)C (stereo partly drawn) [Example 127, 5-fluoro-N,N-diisopropyl-2-(3-(1-((trans-4-(methylsulfonamido)cyclohexyl)methyl)pyrrolidin-3-yl)-1H-pyrrolo[2,3-c]pyridin-1-yl)benzamide]
< 100	< 100	CC(C)N(C(=O)c1cc(F)ccc1-n1cc(C2CN(CC[C@H]3CC[C@H](NC(=O)OC(C)(C)C)CC3)C2)c2ccncc21)C(C)C [Example 136, tert-butyl ((1r,4r)-4-(2-(3-(1-(2-(diisopropylcarbamoyl)-4-fluorophenyl)-1H-pyrrolo[2,3-c]pyridin-3-yl)azetidin-1-yl)ethyl)cyclohexyl)carbamate]
< 100	< 100	CC(C)N(C(=O)c1cc(F)ccc1-n1cc(C2CN(CC[C@H]3CC[C@H](NS(C)(=O)=O)CC3)C2)c2ccncc21)C(C)C [Example 137, 5-fluoro-N,N-diisopropyl-2-(3-(1-(2-((1r,4r)-4-(methylsulfonamido)cyclohexyl)ethyl)azetidin-3-yl)-1H-pyrrolo[2,3-c]pyridin-1-yl)benzamide]
< 100	100 to 1000	CC(C)N(C(=O)c1cc(F)ccc1-n1cc(C2CN(C[C@H]3CC[C@H](NS(C)(=O)=O)CC3)C2)c2ccncc21)C(C)C [Example 138, 5-fluoro-N,N-diisopropyl-2-(3-(1-(((1r,4r)-4-(methylsulfonamido)cyclohexyl)methyl)azetidin-3-yl)-1H-pyrrolo[2,3-c]pyridin-1-yl)benzamide]
< 100	< 100	CC(C)N(C(=O)c1cc(F)ccc1-n1cc(C2CCN(Cc3ccc4oc(=O)[nH]c4c3)C2)c2ccncc21)C(C)C (centres unmarked) [Example 140, 5-fluoro-N,N-diisopropyl-2-(3-(1-((2-oxo-2,3-dihydrobenzo[d]oxazol-5-yl)methyl)pyrrolidin-3-yl)-1H-pyrrolo[2,3-c]pyridin-1-yl)benzamide]

Further lines, the molecule ahead of its results:

SMILES	IC50 [1] [nM]	EC50 [2] [nM]
CC(C)N(C)C(=O)c1cc(F)ccc1-n1cc([C@H]2CC[C@@H](N3CCC(O)CC3)CC2)c2ccncc21 [Example 109, 5-fluoro-2-(3-(cis-4-(4-hydroxypiperidin-1-yl)cyclohexyl)-1H-pyrrolo[2,3-c]pyridin-1-yl)-N-isopropyl-N-methylbenzamide]	< 100	100 to 1000
CC(C)N(C)C(=O)c1cc(F)ccc1-n1cc([C@H]2CC[C@H](N3CCC(F)(F)CC3)CC2)c2ccncc21 [Example 110, 2-(3-(trans-4-(4,4-difluoropiperidin-1-yl)cyclohexyl)-1H-pyrrolo[2,3-c]pyridin-1-yl)-5-fluoro-N-isopropyl-N-methylbenzamide]	< 100	100 to 1000
CC(C)N(C)C(=O)c1cc(F)ccc1-n1cc([C@H]2CC[C@H](N3CCCC(O)C3)CC2)c2ccncc21 (stereo partly drawn) [Example 112, 5-fluoro-2-(3-(trans-4-(3-hydroxypiperidin-1-yl)cyclohexyl)-1H-pyrrolo[2,3-c]pyridin-1-yl)-N-isopropyl-N-methylbenzamide]	< 100	≥ 1000
CC(C)N(C)C(=O)c1cc(F)ccc1-n1cc([C@H]2CC[C@@H](N3CCCC(O)C3)CC2)c2ccncc21 (stereo partly drawn) [Example 113, 5-fluoro-2-(3-(cis-4-(3-hydroxypiperidin-1-yl)cyclohexyl)-1H-pyrrolo[2,3-c]pyridin-1-yl)-N-isopropyl-N-methylbenzamide]	< 100	100 to 1000
CC(C)N(C)C(=O)c1cc(F)ccc1-n1cc([C@H]2CC[C@H](N3CCOCC3)CC2)c2ccncc21 [Example 117, 5-fluoro-N-isopropyl-N-methyl-2-(3-(trans-4-morpholinocyclohexyl)-1H-pyrrolo[2,3-c]pyridin-1-yl)benzamide]	< 100	≥ 1000
Cc1nnc(C2CC2)n1-c1cc(F)ccc1-n1cc(C2CCCN(Cc3ccc4[nH]c(=O)[nH]c4c3)C2)c2ccncc21 (centres unmarked) [Example 121, 5-((3-(1-(2-(3-cyclopropyl-5-methyl-4H-1,2,4-triazol-4-yl)-4-fluorophenyl)-1H-pyrrolo[2,3-c]pyridin-3-yl)piperidin-1-yl)methyl)-1H-benzo[d]imidazol-2(3H)-one]	< 100	< 100
CC(C)N(C)C(=O)c1cc(F)ccc1-n1cc(C2CCN(Cc3ccc4[nH]c(=O)[nH]c4c3)C2)c2ccncc21 (centres unmarked) [Example 122, 5-fluoro-N-isopropyl-N-methyl-2-(3-(1-((2-oxo-2,3-dihydro-1H-benzo[d]imidazol-5-yl)methyl)pyrrolidin-3-yl)-1H-pyrrolo[2,3-c]pyridin-1-yl)benzamide]	< 100	< 100
CC(C)N(C)C(=O)c1cc(F)ccc1-n1cc(C2CCN(Cc3ccc4c(c3)[nH]c(=O)n4CCO)C2)c2ccncc21 (centres unmarked) [Example 123, 5-fluoro-2-(3-(1-((1-(2-hydroxyethyl)-2-oxo-2,3-dihydro-1H-benzo[d]imidazol-5-yl)methyl)pyrrolidin-3-yl)-1H-pyrrolo[2,3-c]pyridin-1-yl)-N-isopropyl-N-methylbenzamide]	< 100	< 100
CC(C)N(C)C(=O)c1cc(F)ccc1-n1cc(C2CCN(C[C@H]3CC[C@H](NS(C)(=O)=O)CC3)C2)c2ccncc21 (stereo partly drawn) [Example 124, N-methyl-5-fluoro-N-isopropyl-2-(3-(1-((trans-4-(methylsulfonamido)cyclohexyl)methyl)pyrrolidin-3-yl)-1H-pyrrolo[2,3-c]pyridin-1-yl)benzamide]	< 100	100 to 1000
